The values that follow come from US20110172232A1, “AMINOACYL PRODRUGS AS AN ACTIVE PHARMACEUTICAL INGREDIENT FOR THROMBOEMBOLIC DISORDERS” (Bayers Schering Pharma Aktiengesellschaft, priority 2007, published 2011).

Series [1] is described as follows: In vitro stability in human plasma (HPLC detection). Format: in vitro ADME. The settings on record: 37° C., read-out: half-life of degradation with release of the active ingredient compound (A). The method, then: (§1) c) In Vitro Stability in Rat Plasma and Human Plasma (HPLC Detection):
(§2) 0.5 mg of substance is dissolved in 1 ml of dimethyl sulfoxide/water 1:1. 500 μl of this sample solution are mixed with 500 μl of rat plasma at 37° C. and shaken. A first sample (10 μl) is immediately taken for HPLC analysis. In the period up to 2 h after the start of incubation, further aliquots are taken after 2, 5, 10, 30, 60 and 90 min, and the contents of the respective test substance and of the active ingredient compound (A) liberated therefrom are determined.
(§3) Agilent 1100 with DAD (G1314A), binary pump (G1312A), autosampler (G1329A), column oven (G1316A), thermostat (G1330A); column: Kromasil 100 C18, 250 mm×4.6 mm, 5 μm; column temperature: 30° C.; mobile phase A: water+5 ml of perchloric acid/liter, mobile phase B: acetonitrile.

Series [2] can be described thus: In vitro stability in rat plasma (HPLC detection). It counts as in vitro ADME. The settings on record: 37° C., read-out: half-life of degradation with release of the active ingredient compound (A). Here is the method:
as §1, §2, §3

Series [3] in a line: Stability in buffer at various pH values (HPLC). It counts as physicochemical. The settings on record: buffer pH 4, 37° C., acetonitrile/buffer. The method, then:
0.25 mg of the test substance is weighed into a 2 ml HPLC vial and 0.5 ml of acetonitrile is added. The substance is dissolved by putting the sample vessel in an ultrasonic bath for about 10 seconds. Then 0.5 ml of the respective buffer solution is added, and the sample is again treated in the ultrasonic bath.
pH 4.0:1 liter of Millipore water is adjusted to pH 4.0 with 1 N hydrochloric acid;
pH 7.4: 90 g of sodium chloride, 13.61 g of potassium dihydrogen phosphate and 83.35 g of 1 M sodium hydroxide solution are made up to 1 liter with Millipore water and then diluted 1:10.
10 μl portions of the test solution are analyzed by HPLC for their content of unchanged test substance every hour over a period of 24 hours at 37° C. The percentage areas of the appropriate peaks are used for quantification.
Agilent 1100 with DAD (G1314A), binary pump (G1312A), autosampler (G1329A), column oven (G1316A), thermostat (G1330A); column: Kromasil 100 C18, 125 mm×4 mm, 5 μm; column temperature: 30° C.; mobile phase A: water+5 ml of perchloric acid/liter, mobile phase B: acetonitrile.

Each structure is given as a SMILES string.

Usually half-life stands for how long it takes for the measured level to halve. Consider `CCCCNCCCC(=O)N(C[C@H]1CN(c2ccc(N3CCOCC3=O)cc2F)C(=O)O1)C(=O)c1ccc(Cl)s1` [Example 22, N-[4-(Butylamino)butanoyl]-5-chloro-N-({(5S)-2-oxo-3-[2-fluoro-4-(3-oxomorpholin-4-yl)phenyl]-1,3-oxazolidin-5-yl}methyl)thiophene-2-carboxamide], for which the half-life at 0.25 mg/mL in series [1] and in series [2] was less than 2 min in each case. The “time stable in solution at pH 4” value in series [3] is reported as “more than 16 h”.
